Reference: patent US20020137929A1, “1 - (3-heterocyclylphenyl) isothiourea, -isourea, -guanidine and -amidine herbicidal agents” (Intellectual Property Department, BASF Aktiengesellschaft, priority 1998, published 2002)

Assays:
ORYSAT (Rice, Tebonnet) = assay: Preemergence herbicidal evaluation; format: in vivo, Oryza sativa, (L.) Tebonnet; details: rated 4-5 weeks after treatment
Summary of the method: (§1)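 Each species is sown separately in potting soil over roughly an inch of soil before any emergence. The soil surface then receives an aqueous acetone spray delivering about 0.0156 to 0.500 kg/ha of compound. After four to five weeks, injury is scored from 0 to 9 relative to a control.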

CASOB (Sicklepod) = assay: Postemergence herbicidal evaluation; format: in vivo, Cassia obtusifolia; details: for Herbicidal rating CASOB: postemergence
Summary of the method: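 Compound is applied as a foliar spray to seedlings about two weeks old, formulated in equal parts acetone and water with 0.5% TWEEN 20 and delivered at 40 psi to give about 0.0156–0.500 kg per hectare. Injury is rated visually 0–9 after four to five weeks.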

[1] = tested on: SAGPY (Arrowhead (Pygmaea)); assay: Preemergence weed control under flooded paddy conditions; format: in vivo, Sagittaria pygmaea; details: rated 3-4 weeks after treatment
Summary of the method: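 Using flooded silt loam (water 1.5 to 3 cm deep), seeds sown in the top 0.5 cm were exposed preemergence to compound pipetted into the flood at about 0.0313 to 0.500 kg/ha. Effects were scored 0-9 by eye three to four weeks later.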

[2] = tested on: GLXMAW (Soybean, Williams); assay: Preemergence herbicidal evaluation; format: in vivo, Glycine max, (L.) Merr. cv Williams; details: rated 4-5 weeks after treatment
Summary of the method: as §1

[3] = tested on: TRZAWR (Wheat, Winter, cv Riband); assay: Preemergence herbicidal evaluation; format: in vivo, Triticum aestivum; details: rated 4-5 weeks after treatment
Summary of the method: as §1

[4] = rate 0.0156 kg/ha, rating scale 0-9
[5] = rate 0.0313 kg/ha, rating scale 0-9
[6] = rate 0.0625 kg/ha, rating scale 0-9
[7] = rate 0.1250 kg/ha, rating scale 0-9
[8] = rate 0.2500 kg/ha, rating scale 0-9

Structure (SMILES) | Herbicidal rating CASOB (CASOB (Sicklepod); rate 0.0156 kg/ha) | Herbicidal rating CASOB (CASOB (Sicklepod); rate 0.0313 kg/ha) | Herbicidal rating CASOB (CASOB (Sicklepod); rate 0.0625 kg/ha) | herbicidal effect rating, SAGPY ([1]; 0.0313 kg/ha) | herbicidal effect rating, SAGPY ([1]; 0.0625 kg/ha) | herbicidal effect rating, SAGPY ([1]; 0.1250 kg/ha) | herbicidal effect rating, SAGPY ([1]; 0.2500 kg/ha) | Preemergence herbicidal rating ORYSAT (ORYSAT (Rice, Tebonnet); [6]) | Preemergence herbicidal rating ORYSAT (ORYSAT (Rice, Tebonnet); [7]) | Preemergence herbicidal rating ORYSAT (ORYSAT (Rice, Tebonnet); [8]) | Preemergence herbicidal rating GLXMAW [2, 6] | Preemergence herbicidal rating GLXMAW [2, 7] | Preemergence herbicidal rating GLXMAW [2, 8] | Preemergence herbicidal rating TRZAWR [3, 6] | Preemergence herbicidal rating TRZAWR [3, 7] | Preemergence herbicidal rating TRZAWR [3, 8] | further results
Cn1c(C(F)(F)F)cc(=O)n(-c2cc(N=C3SCC(=O)N3C3CCC3)c(Cl)cc2F)c1=O [Compound 168, 3-{4-Chloro-5-[(3-cyclobutyl-4-oxo-2-thiazolidinylidene)amino]-2-fluorophenyl}-1-methyl-6-(trifluoromethyl)-2,4(1H,3H)-pyrimidinedione] | 0.0 | 0.0 | 2.0 | 0.0 | 0.0 | 0.0 | 2.0 | – | – | – | – | – | – | – | – | – | Preemergence herbicidal rating ORYSAT (ORYSAT (Rice, Tebonnet); 0.0156 kg/ha): 0.0; Preemergence herbicidal rating ORYSAT (ORYSAT (Rice, Tebonnet); 0.0313 kg/ha): 0.0; Preemergence herbicidal rating ORYSAT (ORYSAT (Rice, Tebonnet); 0.0625 kg/ha): 0.0; Preemergence herbicidal rating ORYSAT (ORYSAT (Rice, Tebonnet); 0.1250 kg/ha): 0.0; Preemergence herbicidal rating ORYSAT (ORYSAT (Rice, Tebonnet); 0.2500 kg/ha): 0.0; Preemergence herbicidal rating GLXMAW ([2]; 0.0156 kg/ha): 0.0; Preemergence herbicidal rating GLXMAW ([2]; 0.0313 kg/ha): 0.0; Preemergence herbicidal rating GLXMAW ([2]; 0.0625 kg/ha): 0.0; Preemergence herbicidal rating GLXMAW ([2]; 0.1250 kg/ha): 0.0; Preemergence herbicidal rating GLXMAW ([2]; 0.2500 kg/ha): 0.0; Preemergence herbicidal rating TRZAWR ([3]; 0.0156 kg/ha): 0.0; Preemergence herbicidal rating TRZAWR ([3]; 0.0313 kg/ha): 0.0; Preemergence herbicidal rating TRZAWR ([3]; 0.0625 kg/ha): 0.0; Preemergence herbicidal rating TRZAWR ([3]; 0.1250 kg/ha): 0.0; Preemergence herbicidal rating TRZAWR ([3]; 0.2500 kg/ha): 0.0
CCOC(=O)CN1C(=O)C(Cc2ccccc2OC)SC1=Nc1cc(-n2c(=O)cc(C(F)(F)F)n(C)c2=O)c(F)cc1Cl (stereo not shown) [Compound 37, Ethyl 2-{{2-chloro-5-[3,6-dihydro-3-methyl-2,6-dioxo-4-(trifluoromethyl)-1(2H)-pyrimidinyl]-4-fluorophenyl}imino}-5-(o-methoxybenzyl)-4-oxo-3-thiazolidineacetate] | – | – | – | – | – | – | – | – | – | – | – | – | – | – | – | – | Preemergence herbicidal rating ORYSAT (ORYSAT (Rice, Tebonnet); rate 0.1250 kg/ha): 0.0; Preemergence herbicidal rating ORYSAT (ORYSAT (Rice, Tebonnet); rate 0.2500 kg/ha): 0.0; Postemergence herbicidal rating CASOB (CASOB (Sicklepod); Rate 0.0158 kg/ha): 0.0; Postemergence herbicidal rating CASOB (CASOB (Sicklepod); Rate 0.0315 kg/ha): 0.0; Postemergence herbicidal rating CASOB (CASOB (Sicklepod); Rate 0.0630 kg/ha): 0.0; Herbicidal rating SAGPY ([1]; 0.0313 kg/ha): 0.0; Herbicidal rating SAGPY ([1]; 0.0625 kg/ha): 0.0; Herbicidal rating SAGPY ([1]; 0.1250 kg/ha): 0.0; Herbicidal rating SAGPY ([1]; 0.2500 kg/ha): 3.0; Preemergence herbicidal rating GLXMAW ([2]; rate 0.1250 kg/ha): 0.0; Preemergence herbicidal rating GLXMAW ([2]; rate 0.2500 kg/ha): 0.0; Preemergence herbicidal rating TRZAWR ([3]; rate 0.1250 kg/ha): 0.0; Preemergence herbicidal rating TRZAWR ([3]; rate 0.2500 kg/ha): 0.0
Cn1c(C(F)(F)F)cc(=O)n(-c2cc(N=C3SCC(=O)N3Cc3ccc(Cl)c(Cl)c3)c(Cl)cc2F)c1=O [Compound 144, 3-{4-Chloro-5-{[3-(3,4-dichlorobenzyl)-4-oxo-2-thiazolidinylidene]amino}-2-fluorophenyl}-1-methyl-6-(trifluoromethyl)-2,4(1H,3H)-pyrimidinedione] | 3.0 | 5.0 | 7.0 | 0.0 | 0.0 | 2.0 | 4.0 | 0.0 | 0.0 | 0.0 | 0.0 | 0.0 | 0.0 | 0.0 | 0.0 | 0.0 | Preemergence herbicidal rating ORYSAT (ORYSAT (Rice, Tebonnet); [4]): 0.0; Preemergence herbicidal rating ORYSAT (ORYSAT (Rice, Tebonnet); [5]): 0.0; Preemergence herbicidal rating GLXMAW [2, 4]: 0.0; Preemergence herbicidal rating GLXMAW [2, 5]: 0.0; Preemergence herbicidal rating TRZAWR [3, 4]: 0.0; Preemergence herbicidal rating TRZAWR [3, 5]: 0.0
COc1cc(CN2C(=O)CSC2=Nc2cc(-n3c(=O)cc(C(F)(F)F)n(C)c3=O)c(F)cc2Cl)cc(OC)c1OC [Compound 140, 3-{4-Chloro-2-fluoro-5-{[3-(3,4,5-trimethoxybenzyl)-4-oxo-2-thiazolidinylidene]amino}phenyl}-1-methyl-6-(trifluoromethyl)-2,4(1H,3H)-pyrimidinedione] | 0.0 | 0.0 | 0.0 | 2.0 | 3.0 | 4.0 | 4.0 | 0.0 | 0.0 | 0.0 | 0.0 | 0.0 | 0.0 | 0.0 | 0.0 | 0.0 | –
